Measurements reported in publication PMC10648349, “Aromatic Diboronic Acids as Effective KPC/AmpC Inhibitors” (Molecules, 2023).
Values after ≈ are worked out from the molar mass of the structure shown.

What was measured:
[1] = tested on: C. guilliermondii IBA 155; experiment: antifungal activity (disc-diffusion, MIC, MFC); assay type: cell-based, Candida guilliermondii; settings: Meyerozyma guilliermondii, IBA155; fluconazole by Etest
Experimental: (§1) Direct antimicrobial activity against Gram-negative and Gram-positive bacterial strains, as well as against yeast, was examined as previously described by the disc-diffusion test, the MIC determination assay, the MBC (for bacteria), and the MFC (for yeasts) determination tests. All the above-mentioned tests were performed according to EUCAST [71, 72] and CLSI [73, 74, 75, 76, 77] recommendations. The following reference agents were used: nitrofurantoin (for Gram-negative rods), linezolid (for Gram-positive bacteria), and fluconazole (in the case of fungi). The new aromatic diboronic acids were dissolved in DMSO (Sigma, St. Louis, MO, USA). In the disc-diffusion test, the concentration of new agents was 0.4 mg per disc.

[2] = tested on: S. aureus ATCC 6538P; experiment: direct antimicrobial activity (disc-diffusion, MIC, MBC); assay type: cell-based; settings: Staphylococcus aureus, ATCC6538P; for zone of inhibition at 0.4 mg/disc: 0.4 mg per disc, 9 mm disc (linezolid 0.03 mg, 6 mm disc), - no zone, read-out: Diameter of inhibition zone
Experimental: as §1

[3] = tested on: S. epidermidis ATCC 12228; experiment: as above; assay type: cell-based; settings: Staphylococcus epidermidis, ATCC12228; for zone of inhibition at 0.4 mg/disc: 0.4 mg per disc, 9 mm disc (linezolid 0.03 mg, 6 mm disc), - no zone, read-out: Diameter of inhibition zone
Experimental: as §1

[4] = tested on: E. faecalis ATCC 29212; experiment: as above; assay type: cell-based; settings: Enterococcus faecalis, ATCC29212
Experimental: as §1

[5] = tested on: E. faecium ATCC 6057; experiment: as above; assay type: cell-based; settings: Enterococcus faecium, ATCC6057
Experimental: as §1

[6] = tested on: S. aureus ATCC 43300 MRSA; experiment: as above; assay type: cell-based; settings: Staphylococcus aureus; for zone of inhibition at 0.4 mg/disc: 0.4 mg per disc, 9 mm disc (linezolid 0.03 mg, 6 mm disc), - no zone, read-out: Diameter of inhibition zone
Experimental: as §1

[7] = MTT-based viability assay; assay type: cell-based; settings: human, MRC-5 human fibroblasts, 72 h, read-out: Viability of MRC-5 cells (% of viable cells ± SD)
Experimental: MRC-5 human fibroblasts (ECACC) were cultured in MEME, Minimum Essential Medium Eagle (Merck) supplemented with 10% fetal bovine serum (Merck), 2 mM l-glutamine, antibiotics (100 U/mL penicillin, 100 μg/mL streptomycin, Merck) and 1% non-essential amino acids (Merck). Cells were grown in 75 cm^2 cell culture flasks (Sarstedt) in a humidified atmosphere of CO2/air (5/95%) at 37 °C. MTT-based viability assay was conducted as described previously. Optical densities were measured at 570 nm using a BioTek microplate reader. All measurements were carried out in three replicates, and the results were expressed as a percent of viable cells versus control cells.

[8] = tested on: E. coli 77 CMY-2(+); experiment: MIC of tested agent alone, microdilution; assay type: cell-based; settings: Escherichia coli; read-out: MIC of agent alone
Experimental: (§2) To examine the ability of tested agents to inhibit various carbapenemases and AmpC-enzymes, their synergy with antibiotics against β-lactamase-producing strains was assessed by checkerboard microdilution assay, with slight modification. Checkerboards were prepared in microtiter plates, with seven two-fold dilutions of β-lactams (1–64 mg/L) in the rows and three two-fold dilutions of tested agents and PBA (4–16 mg/L) in the columns. Tested agents’ concentrations were limited to the concentrations at which the newest commercially available BLIs (vaborbactam, relebactam, and avibactam) are used in susceptibility testing. Plates were inoculated and incubated as in the MIC microdilution assay. Parallel, MICs of tested agents and PBA alone were determined by the microdilution assay. Following the incubation, antibiotic MICs in the presence of each agent’s concentration were determined. Moreover, for the first well without growth found in each checkerboard row and column along the growth/non-growth interface, the fractional inhibitory concentration index (FICI) was calculated using the formula below:FICI = [(MIC of antibiotic in combination)/(MIC of antibiotic alone)] + [(MIC of the tested agent in combination)/(MIC of tested agent alone)].

[9] = tested on: K. pneumoniae ATCC BAA-1705 KPC-2(+); experiment: MIC of tested agent alone, microdilution; assay type: cell-based; settings: Klebsiella pneumoniae, ATCCBAA1705; read-out: MIC of agent alone
Experimental: as §2

[10] = tested on: E. coli 76 KPC-2(+); experiment: MIC of tested agent alone, microdilution; assay type: cell-based; settings: Escherichia coli; read-out: MIC of agent alone
Experimental: as §2

[11] = tested on: K. pneumoniae 83 KPC-3(+), CTX-M-3(+); experiment: MIC of tested agent alone, microdilution; assay type: cell-based; settings: Klebsiella pneumoniae; read-out: MIC of agent alone
Experimental: as §2

[12] = tested on: P. aeruginosa MUW 700 AmpC(+); experiment: MIC of tested agent alone, microdilution; assay type: cell-based; settings: Pseudomonas aeruginosa; read-out: MIC of agent alone
Experimental: as §2

[13] = tested on: K. pneumoniae 81 KPC-3(+); experiment: MIC of tested agent alone, microdilution; assay type: cell-based; settings: Klebsiella pneumoniae; read-out: MIC of agent alone
Experimental: as §2

[14] = tested on: S. cerevisiae ATCC 9763; experiment: antifungal activity (disc-diffusion, MIC, MFC); assay type: cell-based; settings: Saccharomyces cerevisiae, ATCC9763; fluconazole by Etest
Experimental: as §1

[15] = tested on: C. albicans ATCC 90028; experiment: antifungal activity (disc-diffusion, MIC, MFC); assay type: cell-based; settings: Candida albicans, ATCC90028; fluconazole by Etest
Experimental: as §1

[16] = tested on: C. tropicalis IBA 171; experiment: antifungal activity (disc-diffusion, MIC, MFC); assay type: cell-based; settings: Candida tropicalis, IBA171; fluconazole by Etest
Experimental: as §1

[17] = tested on: C. tropicalis ATCC 750; experiment: antifungal activity (disc-diffusion, MIC, MFC); assay type: cell-based; settings: Candida tropicalis, ATCC750; fluconazole by Etest
Experimental: as §1

[18] = tested on: C. krusei ATCC 6258; experiment: antifungal activity (disc-diffusion, MIC, MFC); assay type: cell-based, Candida krusei; settings: Pichia kudriavzevii, ATCC6258; fluconazole by Etest
Experimental: as §1

[19] = tested on: C. parapsilosis ATCC 22019; experiment: antifungal activity (disc-diffusion, MIC, MFC); assay type: cell-based, Candida parapsilosis; settings: Lodderomyces parapsilosis, ATCC22019; fluconazole by Etest
Experimental: as §1

[20] = tested on: P. aeruginosa MUW 700 cAmpC-positive; experiment: combination disc test CDT-AmpC; assay type: cell-based; settings: Pseudomonas aeruginosa; agent 0.3 mg per disc; read-out: Diameter of inhibition zone, CAZ-30 disc with agent
[21] = tested on: B. subtilis ATCC 6633; experiment: direct antimicrobial activity (disc-diffusion); assay type: cell-based; settings: Bacillus subtilis, ATCC6633; 0.4 mg per disc, 9 mm disc (linezolid 0.03 mg, 6 mm disc); - no zone; read-out: Diameter of inhibition zone
Experimental: as §1

[22] = tested on: K. pneumoniae ATCC 700603 ESBL-positive; experiment: combination disc test CDT-ESBL; assay type: cell-based; settings: Klebsiella pneumoniae, ATCC700603; agent 0.3 mg per disc; read-out: Diameter of inhibition zone, CAZ-30 disc with agent
[23] = tested on: K. pneumoniae ATCC BAA 1705 KPC-2-positive; experiment: combination disc test CDT-KPC; assay type: cell-based; settings: Klebsiella pneumoniae, BAA1705; agent 0.3 mg per disc; read-out: Diameter of inhibition zone, MEM-10 disc with agent
[24] = tested on: E. coli 77 CMY-2-positive; experiment: combination disc test CDT-AmpC; assay type: cell-based; settings: Escherichia coli; agent 0.3 mg per disc; read-out: Diameter of inhibition zone, CAZ-30 disc with agent
[25] = tested on: AmpC producers; experiment: microdilution with ceftazidime; assay type: cell-based
Experimental: as §2
(§3) For calculations, all off-scale MICs were converted to the next-highest doubling concentration. Subsequently, both the average and the lowest FICI were interpreted. The interpretation was as follows: FICI ≤ 0.5, synergy; 0.5 < FICI ≤ 4, indifference and FICI > 4, antagonism. Primarily, examined combinations consisted of meropenem (Pol-Aura, Morag, Poland) plus tested agents against carbapenemases-producing strains and ceftazidime (Pol-Aura, Morag, Poland) plus tested agents against AmpC-producing strains. For agents that reduced meropenem MIC at least 4-fold for at least two tested strains, similar assays were performed with imipenem (Pol-Aura, Morag, Poland) and ertapenem (Pol-Aura, Morag, Poland).

[26] = tested on: E. coli 77 CMY-2-positive; experiment: checkerboard microdilution, antibiotic plus tested agent; assay type: cell-based, Escherichia coli
Experimental: as §2, §3

[27] = tested on: P. aeruginosa MUW 700 cAmpC-positive; experiment: as above; assay type: cell-based, Pseudomonas aeruginosa
Experimental: as §2, §3

[28] = 0.4 mg per disc, 9 mm disc (linezolid 0.03 mg, 6 mm disc), - no zone, read-out: Diameter of inhibition zone

Compound	MIC [1] [µg/mL]	MIC [2] [µg/mL]	MIC [3] [µg/mL]	MIC [4] [µg/mL]	MIC [5] [µg/mL]	MIC [6] [µg/mL]	viability at 72 h, 12.5 mg/L [7] [%]	viability at 72 h, 25 mg/L [7] [%]	viability at 72 h, 50 mg/L [7] [%]	MIC [8] [µg/mL]	MIC [9] [µg/mL]	MIC [10] [µg/mL]	MIC [11] [µg/mL]	MIC [12] [µg/mL]	MIC [13] [µg/mL]	MIC [14] [µg/mL]	MIC [15] [µg/mL]	MIC [16] [µg/mL]	MIC [17] [µg/mL]	MIC [18] [µg/mL]	further results
OB(O)c1ccc(Br)c(B(O)O)c1 [2f]	> 400	50 (≈ 204 µM)	100 (≈ 409 µM)	> 400	200 (≈ 818 µM)	200 (≈ 818 µM)	103 ± 8.8	92.1 ± 0.9	76.2 ± 0.7	> 400	> 400	> 400	> 400	> 400	> 400	200 (≈ 818 µM)	> 400	> 400	> 400	400 (≈ 1640 µM)	MBC [2]: 400 µg/mL (≈ 1640 µM); zone of inhibition at 0.4 mg/disc [2]: 14 mm; zone of inhibition at 0.4 mg/disc [3]: 25 mm; zone of inhibition at 0.4 mg/disc [6]: 13 mm; MIC [19]: > 400 µg/mL; zone of inhibition at 300 µg/disc [20]: 21 mm; zone of inhibition at 0.4 mg/disc [21]: 22 mm; zone of inhibition at 300 µg/disc [22]: 15 mm; zone of inhibition at 300 µg/disc [23]: 6 mm; zone of inhibition at 300 µg/disc [24]: 19 mm
OB(O)c1c(F)c(F)c(F)c(F)c1B(O)O [3d]	200 (≈ 841 µM)	200 (≈ 841 µM)	200 (≈ 841 µM)	200 (≈ 841 µM)	200 (≈ 841 µM)	400 (≈ 1680 µM)	91.3 ± 7.4	100 ± 7.7	77.7 ± 15.5	> 400	> 400	> 400	> 400	> 400	> 400	200 (≈ 841 µM)	100 (≈ 421 µM)	> 400	> 400	50 (≈ 210 µM)	zone of inhibition at 0.4 mg/disc [2]: 20 mm; zone of inhibition at 0.4 mg/disc [3]: 21 mm; zone of inhibition at 0.4 mg/disc [4, 28]: 12 mm; zone of inhibition at 0.4 mg/disc [5, 28]: 16 mm; zone of inhibition at 0.4 mg/disc [6]: 18 mm; MIC [19]: > 400 µg/mL; zone of inhibition at 300 µg/disc [20]: 14 mm; zone of inhibition at 0.4 mg/disc [21]: 12 mm; zone of inhibition at 300 µg/disc [22]: 15 mm; zone of inhibition at 300 µg/disc [23]: 6 mm; zone of inhibition at 300 µg/disc [24]: 21 mm
OB(O)c1cc(B(O)O)c(B(O)O)s1 [5c, thiophene-2,3,5-triboronic acid]	> 400	400 (≈ 1860 µM)	> 400	200 (≈ 928 µM)	> 400	> 400	102 ± 3.4	97.9 ± 1.4	85.6 ± 0.7	> 400	> 400	> 400	> 400	> 400	> 400	> 400	400 (≈ 1860 µM)	> 400	> 400	> 400	ceftazidime MIC reduction, up to ([25]; agent 4 mg/L): ≤ 2 fold; ceftazidime MIC reduction, up to ([25]; agent 8 mg/L): up to 4 fold; ceftazidime MIC reduction, up to ([25]; agent 16 mg/L): ≤ 8 fold; Average FICI with ceftazidime [26]: 0.43; The lowest FICI with ceftazidime [26]: 0.27; Average FICI with ceftazidime [27]: 0.43; Interpretation of the average FICI with ceftazidime [27]: S (FICI ≤ 0.5, synergy); Interpretation of the lowest FICI with ceftazidime [27]: S (FICI ≤ 0.5, synergy); The lowest FICI with ceftazidime [27]: 0.27; MIC [19]: > 400 µg/mL; zone of inhibition at 300 µg/disc [20]: 21 mm; zone of inhibition at 300 µg/disc [22]: 16 mm; zone of inhibition at 300 µg/disc [23]: 6 mm; zone of inhibition at 300 µg/disc [24]: 22 mm
